Test results reported in US20240000747A1, “SIRTUIN 6 ACTIVATOR” (DAICEL CORPORATION, priority 2020, published 2024).

Tested on: human SIRT6 promoter
Test: SIRT6 promoter activity in Caco-2-SIRT6p-EGFP reporter cells
Type: cell-based
Details: Caco-2-SIRT6p-EGFP cells, 10 μM test component, two days after addition, EGFP fluorescence, relative ratio to control (PBS); FIG. 1
Source text: The human SIRT6 promoter region (from −1105 to −1 bp; SEQ ID NO: 1) was amplified by PCR using KOD FX (TOYOBO, Tokyo, Japan) with genomic DNA derived from human fetal fibroblast TIG-1 as a template. Primers used were obtained by adding restriction endonuclease recognition sequences of AseI and NheI to the ends based on the reported base sequence information of the hSIRT6 promoter. Specifically, […] designed as SIRT6p-AseI ([…]: SEQ ID NO: 2) and SIRT6p-NheI ([…]: SEQ ID NO: 3) were used. KOD FX (TOYOBO) was used as the DNA polymerase, and PCR was performed under reaction conditions of 40 cycles with one cycle of 94° C. for 2 minutes, 98° C. for 10 seconds, and 68° C. for 1 minute.
The SIRT6 promoter fragment obtained by PCR was TA-cloned into a pGEM-T Easy Vector (Promega Corporation). In addition, the base sequence was confirmed by sequencing. The SIRT6 promoter fragment incorporated into the pGEM-T Easy vector was excised by digestion with restriction enzymes AseI and NheI and inserted into a site of EGFP-C3 (available from Takara Bio Inc.) from which the CMV promoter had been removed by AseI and NheI digestion, and pSIRT6p-EGFP was obtained.
Transfection was performed using HilyMax available from DOJINDO in accordance with its protocol. On the day before transfection, 6.0×10^5 cells of Caco-2 cells (human colon cancer-derived cells; obtained from RIKEN BioResource Research Center) were seeded in a 5-mL dish. On the day of transfection, pSIRT6p-EGFP (15 μg) was diluted with DMEM medium containing 10% FBS to a volume of 300 μL in a 1.5-mL tube, then 70 μL of Hilymax was added to the tube, and the mixture was incubated at room temperature for 20 minutes. Thereafter, the whole amount was added to Caco-2 cells and cultured for 48 hours.
Based on the fact that pSIRT6p-EGFP is resistant to the drug G418 (available from Wako Pure Chemical Industries, Ltd.), drug selection was performed by adding the drug G418 to transfected cells to a final concentration of 800 μg/mL. The culture medium was replaced with a fresh culture medium every 3 days, and G418 was added at the same concentration each time. Caco-2-SIRT6p-EGFP cells were obtained from this.
Using Caco-2-SIRT6p-EGFP cells, a urolithin was examined for its enhancing effect on the promoter of the sirtuin 6 gene SIRT6. […]
Caco-2-SIRT6p-EGFP cells were seeded in a 96-well plate at 0.6×10^4 cells/well. […] This was followed by aspiration and addition of 100 μL of PBS to each well, and the fluorescence intensity was measured with an IN Cell Analyzer 1000 (GE-Healthcare, Amersham Place, UK). The promoter activity was expressed as a relative ratio to the control activity.

Row | Compound | relative SIRT6 promoter activity (SIRT6 promoter-enhancing activity)
1 | O=C1OC[C@H]2OC(O)[C@H](O)[C@@H](O)[C@@H]2OC(=O)c2cc(O)c(O)c(O)c2-c2c(O)c(O)c3oc(=O)c4c(c(O)c(O)c5oc(=O)c2c3c54)-c2c1cc(O)c(O)c2O (mixture of isomers) [punicalin] | no or little SIRT6 promoter-enhancing activity
2 | O=c1oc2cc(O)ccc2c2ccc(O)cc12 [urolithin A] | strong SIRT6 promoter-enhancing activity
3 | C[C@@]12CCc3occc3[C@H]1CC[C@@]13C[C@@H](CC[C@H]12)[C@@](O)(CO)C3 [cafestol] | no or little SIRT6 promoter-enhancing activity
4 | puricalagin | no or little SIRT6 promoter-enhancing activity
